Laboratory results as given in patent publication US4579840A, “Method of blocking immune complex binding to immunoglobulin Fc receptors” (Immunetech Pharmaceuticals, priority 1983, dated 1986).
Ends that are not written are not given here. Peptide text beside a SMILES is read from it. * marks the point of attachment. Cbz = O=C(OCc1ccccc1)*

Columns and labels:
[1] = target: T1, LYMPHOCYTE Fc Receptor IgG (Homo sapiens, UniProt P31994); experiment: Rosette inhibition assay, lymphocyte IgG Fc receptor; format: binding; settings: RPMI-8866 and Daudi cell lines; relative to intact monomeric myeloma IgG at equal concentration; NS = not significantly different from 0
T1 construct: the cells expressing surface Fc receptors formed rosettes; endogenous in cells; host or cells: RPMI-8866 / Daudi
T1 sequence (P31994 43-310): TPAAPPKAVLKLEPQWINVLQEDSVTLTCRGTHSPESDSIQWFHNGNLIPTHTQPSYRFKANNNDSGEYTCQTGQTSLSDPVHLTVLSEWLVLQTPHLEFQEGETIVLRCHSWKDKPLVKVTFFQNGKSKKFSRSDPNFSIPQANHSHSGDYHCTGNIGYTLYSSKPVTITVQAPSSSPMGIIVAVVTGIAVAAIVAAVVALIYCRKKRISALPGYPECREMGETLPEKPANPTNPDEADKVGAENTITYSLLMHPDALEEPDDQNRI
Description: (§1) The Fc receptor blocking activity of the subject peptides was assessed using well established techniques and procedures. In particular, a rosette assay was employed which uses either monomeric, chemically or heat aggregated human IgG or IgE obtained from human myeloma sera. (Gonzalez-Molina, et al., J. Clin. Invest., 59, 616 (1977); Spiegelberg, et al. in Immunoassays: Clinical Laboratory Techniques for the 1980's (Alan R. Liss: New York, 1980), pp. 287-300). The IgG or IgE is then adsorbed to ox-erythrocytes which has been previously treated with trypsin and pyruvic aldehyde. Fresh human cell PMNs, monocytes and basophils from a patient with basophilic chronic myelogenous leukemia or human cell lines (RPMI-8866, and Daudi for lymphocyte Fc receptors and U937 for monocyte/macrophage Fc receptors) were then incubated in the presence or absence of inhibitors (monomeric IgG or IgE or peptides) at equal concentrations for fifteen minutes before addition of the indicator oxerythrocytes. In the absence of inhibitors, the cells expressing surface Fc receptors formed rosettes, clusters of three or more indicator erythrocytes that bound to the cells by virtue of exposed Fc regions on the erythrocyte surface. Addition of inhibitor myeloma proteins or inhibitor peptides produced a reproducable reduction of rosette formation, […], phosphate buffered isotonic saline, was used alone as control and then multiplying the calculated quotient by 100.
(§2) Table 1 presents the inhibition observed by representative peptide inhibitors calculated as a percentage of the inhibition observed with intact, monomeric myeloma proteins. Thus, 50 percent inhibition implys that the peptide was 50% as inhibitory as the intact myeloma protein to which it was compared.

BASOPHIL Fc Receptor IgE = target: T2, BASOPHIL Fc Receptor IgE (Homo sapiens, UniProt P12319); experiment: Rosette inhibition assay, basophil IgE Fc receptor; format: binding; settings: basophils from a patient with basophilic chronic myelogenous leukemia; relative to monomeric myeloma IgE; NS = not significantly different from 0
T2 construct: the cells expressing surface Fc receptors formed rosettes; endogenous in cells; host or cells: basophils of a patient with basophilic chronic myelogenous leukemia
T2 sequence (P12319 26-257): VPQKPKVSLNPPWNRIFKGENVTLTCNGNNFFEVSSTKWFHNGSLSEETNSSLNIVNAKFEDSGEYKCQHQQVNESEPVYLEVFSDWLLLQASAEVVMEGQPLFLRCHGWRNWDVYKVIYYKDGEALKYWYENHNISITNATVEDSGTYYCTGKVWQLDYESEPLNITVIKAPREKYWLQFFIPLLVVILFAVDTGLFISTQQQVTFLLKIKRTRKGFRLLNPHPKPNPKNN
T2 sequence (Q01362 1-244 partner): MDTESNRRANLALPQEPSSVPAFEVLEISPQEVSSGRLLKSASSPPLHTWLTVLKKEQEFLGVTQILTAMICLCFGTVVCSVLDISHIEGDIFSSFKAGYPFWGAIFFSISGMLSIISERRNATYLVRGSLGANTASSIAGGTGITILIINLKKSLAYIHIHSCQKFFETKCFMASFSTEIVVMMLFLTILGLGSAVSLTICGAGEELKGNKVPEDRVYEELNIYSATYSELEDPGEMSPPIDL
T2 sequence (P30273 19-86 partner): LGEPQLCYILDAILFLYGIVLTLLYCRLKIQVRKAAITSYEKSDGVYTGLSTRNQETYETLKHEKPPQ
Description: as §1, §2

[2] = target: T3, MONOCYTE/MACROPHAGE Fc Receptor IgE (Homo sapiens, UniProt P06734); experiment: Rosette inhibition assay, monocyte/macrophage IgE Fc receptor; format: binding; settings: human monocytes or U937; relative to intact monomeric myeloma IgE at equal concentration; NS = not significantly different from 0
T3 construct: the cells expressing surface Fc receptors formed rosettes; endogenous in cells; host or cells: fresh human monocytes or U937
T3 sequence (P06734 1-321): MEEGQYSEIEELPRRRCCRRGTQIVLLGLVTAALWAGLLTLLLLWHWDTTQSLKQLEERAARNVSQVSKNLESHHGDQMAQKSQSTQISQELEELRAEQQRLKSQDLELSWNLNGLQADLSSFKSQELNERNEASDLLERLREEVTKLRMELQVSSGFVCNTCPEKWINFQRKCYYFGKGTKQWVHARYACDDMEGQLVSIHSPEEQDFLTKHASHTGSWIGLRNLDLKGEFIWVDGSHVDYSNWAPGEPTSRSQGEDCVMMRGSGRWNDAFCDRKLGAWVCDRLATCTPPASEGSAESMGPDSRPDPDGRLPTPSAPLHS
Description: as §1, §2

C1q Fc receptor = C1q Fc receptor (Homo sapiens, UniProt P02745+P02746+P02747); settings: peptides adsorbed to erythrocytes; Johnson and Thames 1975, Boackle et al. 1979; cited from earlier work
C1 = C1 (Homo sapiens, UniProt P02745+P02746+P02747); settings: Prystowsky et al. 1981, Lukas et al. 1981; cited from earlier work
[3] = target: T4, LYMPHOCYTE Fc Receptor IgE (Homo sapiens, UniProt P06734); experiment: Rosette inhibition assay, lymphocyte IgE Fc receptor; format: binding; settings: RPMI-8866 and Daudi cell lines; relative to intact monomeric myeloma IgE at equal concentration; NS = not significantly different from 0
T4 construct: the cells expressing surface Fc receptors formed rosettes; endogenous in cells; host or cells: RPMI-8866 / Daudi
T4 sequence (P06734 1-321): T3 sequence (P06734 1-321)
Description: as §1, §2

C1q Fc receptor, sequence (P02745 23-245): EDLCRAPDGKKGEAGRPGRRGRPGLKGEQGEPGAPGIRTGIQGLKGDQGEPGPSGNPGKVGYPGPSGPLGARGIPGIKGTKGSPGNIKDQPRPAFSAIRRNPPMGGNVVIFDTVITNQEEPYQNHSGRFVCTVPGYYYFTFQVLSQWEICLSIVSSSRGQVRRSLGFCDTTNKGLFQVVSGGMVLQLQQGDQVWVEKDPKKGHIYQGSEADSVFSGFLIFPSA
C1q Fc receptor, sequence (P02746 28-253): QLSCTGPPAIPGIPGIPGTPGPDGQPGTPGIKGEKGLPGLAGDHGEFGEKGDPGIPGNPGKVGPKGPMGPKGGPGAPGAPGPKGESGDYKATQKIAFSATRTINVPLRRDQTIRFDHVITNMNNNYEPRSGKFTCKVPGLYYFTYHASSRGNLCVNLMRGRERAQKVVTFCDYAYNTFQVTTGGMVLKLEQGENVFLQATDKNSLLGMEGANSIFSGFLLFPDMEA
C1q Fc receptor, sequence (P02747 29-245): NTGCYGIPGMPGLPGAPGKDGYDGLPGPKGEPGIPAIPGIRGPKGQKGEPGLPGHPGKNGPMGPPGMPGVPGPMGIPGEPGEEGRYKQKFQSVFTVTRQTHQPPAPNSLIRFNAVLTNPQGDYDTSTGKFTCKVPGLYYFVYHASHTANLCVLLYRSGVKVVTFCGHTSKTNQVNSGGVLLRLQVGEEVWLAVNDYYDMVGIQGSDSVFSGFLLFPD
C1q Fc receptor, sequence (P00736 18-705 partner): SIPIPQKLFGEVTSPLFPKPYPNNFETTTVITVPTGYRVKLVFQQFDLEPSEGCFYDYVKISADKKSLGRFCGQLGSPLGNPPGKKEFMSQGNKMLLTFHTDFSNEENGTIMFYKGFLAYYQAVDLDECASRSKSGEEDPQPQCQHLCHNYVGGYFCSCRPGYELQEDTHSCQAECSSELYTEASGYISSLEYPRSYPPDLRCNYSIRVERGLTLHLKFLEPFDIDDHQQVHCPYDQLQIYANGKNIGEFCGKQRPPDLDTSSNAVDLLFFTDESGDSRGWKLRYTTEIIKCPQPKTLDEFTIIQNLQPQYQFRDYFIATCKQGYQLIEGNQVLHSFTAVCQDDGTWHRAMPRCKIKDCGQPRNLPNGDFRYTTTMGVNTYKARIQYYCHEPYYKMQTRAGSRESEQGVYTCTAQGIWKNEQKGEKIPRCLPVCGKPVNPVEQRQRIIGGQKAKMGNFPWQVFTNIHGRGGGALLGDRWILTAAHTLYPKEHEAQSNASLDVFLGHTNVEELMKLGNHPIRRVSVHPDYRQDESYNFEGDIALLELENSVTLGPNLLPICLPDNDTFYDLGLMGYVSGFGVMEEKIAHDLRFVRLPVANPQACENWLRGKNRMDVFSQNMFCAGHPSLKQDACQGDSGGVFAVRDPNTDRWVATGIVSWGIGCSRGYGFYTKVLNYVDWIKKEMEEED
C1q Fc receptor, sequence (P09871 16-688 partner): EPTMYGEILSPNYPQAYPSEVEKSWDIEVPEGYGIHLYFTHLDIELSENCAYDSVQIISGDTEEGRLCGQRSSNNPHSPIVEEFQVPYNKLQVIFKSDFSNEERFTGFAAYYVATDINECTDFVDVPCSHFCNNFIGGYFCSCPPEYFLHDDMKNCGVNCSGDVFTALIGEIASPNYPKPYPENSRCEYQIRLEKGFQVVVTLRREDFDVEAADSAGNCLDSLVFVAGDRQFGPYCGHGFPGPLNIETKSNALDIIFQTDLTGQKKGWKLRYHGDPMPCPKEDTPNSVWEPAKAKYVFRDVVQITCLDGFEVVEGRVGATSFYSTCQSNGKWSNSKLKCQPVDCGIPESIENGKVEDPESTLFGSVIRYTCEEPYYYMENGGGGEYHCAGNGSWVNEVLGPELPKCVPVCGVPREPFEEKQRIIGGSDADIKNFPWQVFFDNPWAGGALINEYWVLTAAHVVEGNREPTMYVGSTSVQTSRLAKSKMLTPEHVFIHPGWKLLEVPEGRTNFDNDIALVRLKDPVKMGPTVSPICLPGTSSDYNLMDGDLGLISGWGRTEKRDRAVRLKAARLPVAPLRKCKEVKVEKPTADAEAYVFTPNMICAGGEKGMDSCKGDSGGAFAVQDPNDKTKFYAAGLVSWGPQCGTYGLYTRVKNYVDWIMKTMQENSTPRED
C1, sequence (P02745 23-245): as the sequence (P02745 23-245) above
C1, sequence (P02746 28-253): as the sequence (P02746 28-253) above
C1, sequence (P02747 29-245): as the sequence (P02747 29-245) above
C1, sequence (P00736 18-705 partner): as the sequence (P00736 18-705 partner) above
C1, sequence (P09871 16-688 partner): as the sequence (P09871 16-688 partner) above

Row | Molecule | Rosette inhibition expressed as percent inhibition by monomeric IgG; lymphocyte Fc receptor, IgG [1] | Rosette inhibition expressed as percent inhibition by monomeric IgE; basophil Fc receptor, IgE (BASOPHIL Fc Receptor IgE) | Rosette inhibition expressed as percent inhibition by monomeric IgE; monocyte/macrophage Fc receptor, IgE [2] | complement activating ability (C1q-mediated cell lysis) (C1q Fc receptor) | also measured
1 | YSKLTVDKSR [reference compound] | 29% | 89% | 33% |  | 
2 | ZValGluTrpGly (Cbz-VEWG) |  |  |  | less active | 
3 | FNWYVDGVQVHNAKTK |  |  |  |  | inhibition of C1-mediated hemolysis (C1): less active
4 | ZAsnTrpTyrVal (Cbz-NWYV) |  |  |  | less active | 
5 | PDARHS [Pro--Asp--Ala--Arg--His--Ser, Pro-Asp-Ala-Arg-His-Ser] | 95% | 101% | 87% |  | Rosette inhibition expressed as percent inhibition by monomeric IgE; lymphocyte Fc receptor, IgE [3]: 98%
6 | N=C(N)NCCC[C@H](NC(=O)[C@H](CO)NC(=O)[C@H](CCCCN)NC(=O)[C@@H](N)CC(=O)O)C(=O)O [Asp--Lys--Ser--Arg, Asp-Lys-Ser-Arg] (H-DKSR-OH) | 86% | 89% | 38% |  | Rosette inhibition expressed as percent inhibition by monomeric IgE; lymphocyte Fc receptor, IgE [3]: 23%
7 | DSNPR [Asp--Ser--Asn--Pro--Arg] |  | 37% | 48% |  | 
8 | NCCCC[C@H](NC(=O)[C@H](CCC(N)=O)NC(=O)[C@@H](N)CCC(=O)O)C(=O)N[C@@H](CC(=O)O)C(=O)O [Glu--Gln--Lys--Asp] (H-EQKD-OH) |  | 106% |  |  | 
9 | TISKAKGQPR | 84% | 133% | 87% |  | Rosette inhibition expressed as percent inhibition by monomeric IgE; lymphocyte Fc receptor, IgE [3]: 106%
10 | YVEWGERG |  |  |  | less active | 
11 | TrpTyrValAspGly (WYVDG; printed: TrpTyrValAspGly) |  |  |  | less active | 
12 | TRAEAEQKD [Thr--Arg--Ala--Glu--Ala--Glu--Gln--Lys--Asp] |  | 108% | 21% |  | 
13 | YDYYVDG |  |  |  | less active | 
14 | KFEWYVEGVE |  |  |  | less active | 
15 | GVQVHNAKTK |  |  |  |  | inhibition of C1-mediated hemolysis (C1): approximately as active as inhibitors as intact monomeric IgG
16 | PDARHSTTQPR [Pro--Asp--Ala--Arg--His--Ser--Thr--Thr--Gln--Pro--Arg] | 92% | ~ 130% | 103% |  | Rosette inhibition expressed as percent inhibition by monomeric IgE; lymphocyte Fc receptor, IgE [3]: 100%
17 | Ac-Phe-Asn-Trp-Tyr-Val (Ac-FNWYV) |  |  |  |  | inhibition of C1-mediated hemolysis (C1): less active

Row | Molecule | Rosette inhibition expressed as percent inhibition by monomeric IgG; lymphocyte Fc receptor, IgG [1] | Rosette inhibition expressed as percent inhibition by monomeric IgE; basophil Fc receptor, IgE (BASOPHIL Fc Receptor IgE) | Rosette inhibition expressed as percent inhibition by monomeric IgE; monocyte/macrophage Fc receptor, IgE [2] | complement activating ability (C1q-mediated cell lysis) (C1q Fc receptor) | also measured
18 | C[C@H](NC(=O)[C@H](CCCNC(=N)N)NC(=O)[C@@H](N)[C@@H](C)O)C(=O)N[C@@H](CCC(=O)O)C(=O)O [Thr--Arg--Ala--Glu, Thr-Arg-Ala-Glu] (H-TRAE-OH) | 49% | 41% | 20% |  | 
19 | TTQPR [Thr--Thr--Gln--Pro--Arg] | 36% | 80% | 58% |  | 
20 | Tyr-Glu-Ala-Gly (YEAG; printed: Tyr-Glu-Ala-Gly) |  |  |  | inactive | 
21 | CC(=O)N[C@@H](CCC(N)=O)C(=O)N1CCC[C@H]1C(=O)N[C@@H](CCC(=O)O)C(=O)N[C@@H](CC(N)=O)C(=O)O [Ac--Gln--Pro--Glu--Asn, Ac-Gln-Pro-Glu-Asn] (Ac-QPEN-OH) | 94% | 89% | 55% |  | 
22 | KYDWYVDG |  |  |  | less active | 
23 | Trp-Leu |  |  |  | inactive | 
24 | KFDWAVDG |  |  |  | less active | 
25 | TyrGluArgGly (YERG; printed: TyrGluArgGly) |  |  |  | less active | 
26 | KADWYVDG |  |  |  | about as effective in activating C1q-mediated cell lysis as immune complexes formed by heat aggregated IgG | 
27 | TVLHQNWLDGK | 34% | 100% | 95% |  | Rosette inhibition expressed as percent inhibition by monomeric IgE; lymphocyte Fc receptor, IgE [3]: 95%
28 | NCCCC[C@H](NC(=O)[C@H](CO)NC(=O)[C@H](CCCCN)NC(=O)[C@@H](N)CC(=O)O)C(=O)O [Asp--Lys--Ser--Lys] (H-DKSK-OH) | 16% | 94% |  |  | 
29 | SVMHEALHNHYTQK [Ser--Val--Met--His--Glu--Ala--Leu--His--Asn--His--Tyr--Thr--Gln--Lys] |  | 74% | 28% |  | 
30 | VHEAKAKPGR |  |  |  | less active | 
31 | EWYERG |  |  |  | less active | 
32 | DKSRAQQGN [Asp--Lys--Ser--Arg--Ala--Gln--Gln--Gly--Asn] |  | 74% |  |  | 
33 | RSTTKTSGPR | 100% | 110% | 87% |  | Rosette inhibition expressed as percent inhibition by monomeric IgE; lymphocyte Fc receptor, IgE [3]: 87%
34 | KFDAYVDG |  |  |  | less active | 
